Some results are limits rather than exact numbers.

The term IC50 denotes the concentration needed to halve the response being measured. As usually defined, the EC50 is the concentration giving half of the maximal effect.

For experiment [1], the target named is T1, cytoplasmic kinase domain of human IGF-1R (IGF-1R-GST) (Homo sapiens, UniProt P08069).
T1 construct: cytoplasmic kinase domain of human IGF-1R (amino acids 964-1370); GST (glutathione-S-transferase); made in house; host or cells: High Five insect cells (Invitrogen)
The experiment can be described thus: Insulin-like growth factor-1 receptor (IGF-1R) kinase assay (DELFIA). The class given is biochemical. Conditions: IGF-1R-GST kinase activity, read-out: IGF1R IC50. In short, it runs like this: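 GST-tagged IGF-1R cytoplasmic kinase domain phosphorylates pEY with biotinylated pEY for 40 min at RT; EDTA stop. Product captured on streptavidin, detected with europium anti-phosphotyrosine antibody by DELFIA time-resolved fluorescence; IC50 from inhibition curves.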

In experiment [2] the test system is TC-71 (Ewing's sarcoma) cells. Nature of the experiment: Cell proliferation assay, TC-71 (Alamar Blue). The class given is cell-based. The conditions noted are these: 72 h with compound, EC50 ranges as class symbols. In short, it runs like this: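 TC-71 Ewing's sarcoma cells, 2000/well in IMDM + 10% FCS, attached overnight, then exposed to serial compound dilutions in duplicate for 72 h at 37° C. Viability by Alamar Blue (7 h; fluorescence ex 544/em 590 nm); IC50 from sigmoidal variable-slope fit of normalized data.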
For orientation: The colour change of resazurin is a common sign of viable cells or microbes.

T1 sequence (P08069 964-1367 limits assumed): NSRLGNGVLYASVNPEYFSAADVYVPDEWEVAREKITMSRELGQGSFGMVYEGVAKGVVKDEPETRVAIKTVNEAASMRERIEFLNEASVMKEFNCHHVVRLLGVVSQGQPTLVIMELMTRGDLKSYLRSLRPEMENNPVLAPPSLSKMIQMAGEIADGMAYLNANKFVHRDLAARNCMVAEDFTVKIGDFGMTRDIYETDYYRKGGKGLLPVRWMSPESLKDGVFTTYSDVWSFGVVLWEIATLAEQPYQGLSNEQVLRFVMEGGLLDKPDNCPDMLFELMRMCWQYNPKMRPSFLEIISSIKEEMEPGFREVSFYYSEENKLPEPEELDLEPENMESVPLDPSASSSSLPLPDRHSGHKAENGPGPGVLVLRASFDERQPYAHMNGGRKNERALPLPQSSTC

As for `Cc1c(Nc2ncc(Cl)c(NCc3cccc4c3C(C)(C)C(=O)N4)n2)ccc(C2CCN(CC(C)(C)O)CC2)c1C` [Example I-339], the IC50 in experiment [1] came out at 2.1 nM. In experiment [2], the EC50 is less than 50 nM.
The corresponding values for `CC(C)(O)CN1CCC(c2ccc(Nc3ncc(Cl)c(NCc4cccc5c4C(C)(C)C(=O)N5)n3)c(OC(F)(F)F)c2)CC1` [Example I-340] are 11 nM and 50 to 250 nM.
Consider `CC(C)(O)CN1CCC(c2ccc(Nc3ncc(Cl)c(NCc4cccc5c4C(C)(C)C(=O)N5)n3)c3c2OCO3)CC1` [Example I-341], for which the IC50 in experiment [1] amounted to 0.9 nM. The EC50 in experiment [2] was less than 50 nM.
The corresponding values for `CC(C)(O)CN1CCC(c2ccc(Nc3ncc(Cl)c(NCc4cccc5c4C(C)(C)C(=O)N5)n3)c(OC(F)F)c2)CC1` [Example I-342] are 3 nM and less than 50 nM.
Regarding `COCCN1CCC(c2ccc(Nc3ncc(C(F)(F)F)c(NCc4cccc5c4C(C)(C)C(=O)N5)n3)c(C)c2)CC1` [Example I-352], the IC50 in experiment [1] came to 0.8 nM. In addition, the EC50 in experiment [2] was less than 50 nM.
Consider `COCCN1CCN(c2ccc(Nc3ncc(C(F)(F)F)c(NCc4cccc5c4C(C)(C)C(=O)N5)n3)c(OC)c2)CC1` [Example I-353], for which, in experiment [1], the IC50 worked out at 2 nM. In addition, the EC50 in experiment [2] is less than 50 nM.
The corresponding values for `Cc1cc(C2CCN(CCO)CC2)ccc1Nc1ncc(C(F)(F)F)c(NCc2cccc3c2C(C)(C)C(=O)N3)n1` [Example I-355] are 0.5 nM and 250 to 3000 nM.
The corresponding values for `COCCN1CCC[C@@H](c2ccc(Nc3ncc(Br)c(NCc4cccc5c4C(C)(C)C(=O)N5)n3)c(C)c2)C1` [Example I-362] are 0.3 nM and less than 50 nM.
The corresponding values for `COCCN1CCC[C@H](c2ccc(Nc3ncc(Br)c(NCc4cccc5c4C(C)(C)C(=O)N5)n3)c(C)c2)C1` [Example I-363] are 2 nM and 50 to 250 nM.
As to `CCc1cc(C2CCN(CCOC)CC2)ccc1Nc1ncc(Br)c(NCc2cccc3c2C(C)(C)C(=O)N3)n1` [Example I-367], in experiment [1], the IC50 amounted to 3 nM. For the same compound, the EC50 in experiment [2] is less than 50 nM.
Regarding `COCCN1CCN(c2ccc(Nc3ncc(Br)c(NCc4cccc5c4C(C)(C)C(=O)N5)n3)c(OC)c2)CC1` [Example I-369], in experiment [1], the IC50 amounted to 2 nM. Further, in experiment [2], the EC50 was less than 50 nM.
On to `COc1cc(C2CCN(CC#N)CC2)ccc1Nc1ncc(Cl)c(NCc2cccc3c2C(C)(C)C(=O)N3)n1` [Example I-374], for which the IC50 in experiment [1] amounted to 11 nM. In addition, the EC50 in experiment [2] lay within 50 to 250 nM.
The corresponding values for `Cc1cc(C2CCN(CC#N)CC2)ccc1Nc1ncc(Cl)c(NCc2cccc3c2C(C)(C)C(=O)N3)n1` [Example I-375] are 9 nM and less than 50 nM.
The corresponding values for `COCCN1CCC(c2ccc(Nc3ncc(Cl)c(NCc4cccc5c4C(C)(C)C(=O)N5)n3)cc2C)CC1` [Example I-376] are 0.6 nM and less than 50 nM.
Turning to `Cc1cc(C2CCN(CC(C)(C)O)CC2)ccc1Nc1ncc(Cl)c(NCc2cccc3c2C(C)(C)C(=O)N3)n1` [Example I-377], the IC50 in experiment [1] was determined as 0.9 nM. In experiment [2], the EC50 is less than 50 nM.
The corresponding values for `CCc1cc(C2CCN(CC(C)(C)O)CC2)ccc1Nc1ncc(Cl)c(NCc2cccc3c2C(C)(C)C(=O)N3)n1` [Example I-378] are 6 nM and 50 to 250 nM.
As for `CCc1cc(C2CCN(CCOC)CC2)ccc1Nc1ncc(Cl)c(NCc2cccc3c2C(C)(C)C(=O)N3)n1` [Example I-385], the IC50 in experiment [1] came out at 4 nM. In experiment [2], the EC50 was in the range of 50 to 250 nM.
For `COCCN1CCN(c2ccc(Nc3ncc(Cl)c(NCc4cccc5c4C(C)(C)C(=O)N5)n3)c(OC)c2)CC1` [Example I-386], the IC50 in experiment [1] is 3 nM. In addition, the EC50 in experiment [2] is less than 50 nM.

These data come from patent US8546443B2, “Benzylic oxindole pyrimidines” (Boehringer Ingelheim International GmbH, priority 2010, dated 2013).
